Laboratory results: ChEMBL document CHEMBL3885881, “DrugMatrix”

Species: Rattus norvegicus
Test: DrugMatrix - Regimen: Daily Repeat
Type: toxicity, organism-based, Sprague-Dawley
Design: regimen Daily Repeat, gender Male, age 6-8 weeks
Conditions: in vivo, po, 100 mg/kg, route oral GAVAGE, dose level Low, vehicle .5 % CMC; for ABSOLUTE BASOPHIL / ABSOLUTE EOSINOPHIL / ABSOLUTE LYMPHOCYTE / ABSOLUTE MONOCYTE / ABSOLUTE SEGMENTED NEUTROPHIL / BASOPHIL / EOSINOPHIL / ERYTHROCYTE COUNT / HEMATOCRIT / HEMOGLOBIN / LEUKOCYTE COUNT / LYMPHOCYTE / MEAN CORPUSCULAR HEMOGLOBIN / MEAN CORPUSCULAR HEMOGLOBIN CONCENTRATION / MEAN CORPUSCULAR VOLUME / MONOCYTE / NEUTROPHIL / NUCLEATED RED BLOOD CELLS / PLATELET COUNT: tissue Blood; for ALANINE AMINOTRANSFERASE / ALBUMIN / ALKALINE PHOSPHATASE / ASPARTATE AMINOTRANSFERASE / BLOOD UREA NITROGEN / CARBON DIOXIDE / CHLORIDE / CHOLESTEROL / CREATINE PHOSPHOKINASE / CREATININE / GLUCOSE / LACTATE DEHYDROGENASE / LIPASE / PHOSPHORUS / POTASSIUM / SODIUM / TOTAL BILIRUBIN / TOTAL PROTEIN / URIC ACID: tissue Plasma

CC=Cc1ccc(O)c(OC)c1 [ISOEUGENOL]
ABSOLUTE BASOPHIL (72 h, time 3 day): 0 CELLS/uL | ABSOLUTE EOSINOPHIL (72 h, time 3 day): 0 CELLS/uL | ABSOLUTE LYMPHOCYTE (72 h, time 3 day): 15444.33 CELLS/uL | ABSOLUTE MONOCYTE (72 h, time 3 day): 342 CELLS/uL | ABSOLUTE SEGMENTED NEUTROPHIL (72 h, time 3 day): 1847 CELLS/uL | BASOPHIL (72 h, time 3 day): 0% | EOSINOPHIL (72 h, time 3 day): 0% | ERYTHROCYTE COUNT (72 h, time 3 day): 5.62 x10E6/uL | HEMATOCRIT (72 h, time 3 day): 36.7% | HEMOGLOBIN (72 h, time 3 day): 13.83 G/DL | LEUKOCYTE COUNT (72 h, time 3 day): 17.63 x10E3/uL | LYMPHOCYTE (72 h, time 3 day): 87.33% | MEAN CORPUSCULAR HEMOGLOBIN (72 h, time 3 day): 24.63 pg | MEAN CORPUSCULAR HEMOGLOBIN CONCENTRATION (72 h, time 3 day): 37.77 G/DL | MEAN CORPUSCULAR VOLUME (72 h, time 3 day): 65.23 fL | MONOCYTE (72 h, time 3 day): 2% | NEUTROPHIL (72 h, time 3 day): 10.67% | NUCLEATED RED BLOOD CELLS (72 h, time 3 day): 0 /100WBC | PLATELET COUNT (72 h, time 3 day): 1262 x10E3/uL | ALANINE AMINOTRANSFERASE (72 h, time 3 day): 53.33 u/L | ALBUMIN (72 h, time 3 day): 4.73 G/DL | ALKALINE PHOSPHATASE (72 h, time 3 day): 338.67 u/L | ASPARTATE AMINOTRANSFERASE (72 h, time 3 day): 88.33 u/L | BLOOD UREA NITROGEN (72 h, time 3 day): 17.67 mg/dL | CARBON DIOXIDE (72 h, time 3 day): 23.67 mmol/L | CHLORIDE (72 h, time 3 day): 102 MEQ/L | CHOLESTEROL (72 h, time 3 day): 66.67 mg/dL | CREATINE PHOSPHOKINASE (72 h, time 3 day): 312.33 u/L | CREATININE (72 h, time 3 day): 0.17 mg/dL | GLUCOSE (72 h, time 3 day): 143 mg/dL | LACTATE DEHYDROGENASE (72 h, time 3 day): 280.33 u/L | LIPASE (72 h, time 3 day): 9.33 u/L | PHOSPHORUS (72 h, time 3 day): 11.33 mg/dL | POTASSIUM (72 h, time 3 day): 6.23 MEQ/L | SODIUM (72 h, time 3 day): 144.93 MEQ/L | TOTAL BILIRUBIN (72 h, time 3 day): 0.23 mg/dL | TOTAL PROTEIN (72 h, time 3 day): 5.83 G/DL | URIC ACID (72 h, time 3 day): 1.8 mg/dL | ABSOLUTE BASOPHIL (120 h, time 5 day): 0 CELLS/uL | ABSOLUTE EOSINOPHIL (120 h, time 5 day): 450 CELLS/uL | ABSOLUTE LYMPHOCYTE (120 h, time 5 day): 12545.67 CELLS/uL | ABSOLUTE MONOCYTE (120 h, time 5 day): 392.67 CELLS/uL | ABSOLUTE SEGMENTED NEUTROPHIL (120 h, time 5 day): 1645 CELLS/uL | BASOPHIL (120 h, time 5 day): 0% | EOSINOPHIL (120 h, time 5 day): 3% | ERYTHROCYTE COUNT (120 h, time 5 day): 5.9 x10E6/uL | HEMATOCRIT (120 h, time 5 day): 36% | HEMOGLOBIN (120 h, time 5 day): 13.27 G/DL | LEUKOCYTE COUNT (120 h, time 5 day): 15.03 x10E3/uL | LYMPHOCYTE (120 h, time 5 day): 83.33% | MEAN CORPUSCULAR HEMOGLOBIN (120 h, time 5 day): 22.57 pg | MEAN CORPUSCULAR HEMOGLOBIN CONCENTRATION (120 h, time 5 day): 36.83 G/DL | MEAN CORPUSCULAR VOLUME (120 h, time 5 day): 61.17 fL | MONOCYTE (120 h, time 5 day): 2.67% | NEUTROPHIL (120 h, time 5 day): 11% | NUCLEATED RED BLOOD CELLS (120 h, time 5 day): 0 /100WBC | PLATELET COUNT (120 h, time 5 day): 1402 x10E3/uL | ALANINE AMINOTRANSFERASE (120 h, time 5 day): 47.67 u/L | ALBUMIN (120 h, time 5 day): 4.37 G/DL | ALKALINE PHOSPHATASE (120 h, time 5 day): 345.67 u/L | ASPARTATE AMINOTRANSFERASE (120 h, time 5 day): 83.33 u/L | BLOOD UREA NITROGEN (120 h, time 5 day): 18 mg/dL | CARBON DIOXIDE (120 h, time 5 day): 23.67 mmol/L | CHLORIDE (120 h, time 5 day): 109.67 MEQ/L | CHOLESTEROL (120 h, time 5 day): 58 mg/dL | CREATINE PHOSPHOKINASE (120 h, time 5 day): 251.33 u/L | CREATININE (120 h, time 5 day): 0.21 mg/dL | GLUCOSE (120 h, time 5 day): 141 mg/dL | LACTATE DEHYDROGENASE (120 h, time 5 day): 180.67 u/L | LIPASE (120 h, time 5 day): 9 u/L | PHOSPHORUS (120 h, time 5 day): 11.17 mg/dL | POTASSIUM (120 h, time 5 day): 6.1 MEQ/L | SODIUM (120 h, time 5 day): 146.53 MEQ/L | TOTAL BILIRUBIN (120 h, time 5 day): 0.2 mg/dL | TOTAL PROTEIN (120 h, time 5 day): 6.13 G/DL | URIC ACID (120 h, time 5 day): 1.57 mg/dL
